Assay results from paper PMC3032881 (Molecular Immunology, 2011).
Peptide text beside a SMILES is read from it.

Experiments:
[1] = target: HLA A*0201 on TAP deficient T2 cells (Homo sapiens, UniProt P04439, D140Y/D185E/D98H/E176V/E277Q/G131W/G231S/I119V/I121R/I166T/I218V/L300P/L318F/N151K/N90K/P208A/P217A/Q86G/Q94H/R138H/R169H/T345S); assay: T2-binding assay (cell surface pMHCI stabilization, FACS); assay type: cell-based
[2] = target: T1, HLA A*0201 (soluble recombinant pMHCI) (Homo sapiens, UniProt P04439, D140Y/D185E/D98H/E176V/E277Q/G131W/G231S/I119V/I121R/I166T/I218V/L300P/L318F/N151K/N90K/P208A/P217A/Q86G/Q94H/R138H/R169H/T345S); assay: Real time SPR pMHC stability assay; assay type: binding; details: pMHCI half-life converted from Langmuir dissociation analysis; BIAcore 3000, CM5 chip, ∼500 RUs, 10 μl/min, 15,000 s
T1 construct: made in house

Row | Structure (SMILES) | EC50 [1] [µM] | Half-life [2] [h]
1 | CC[C@H](C)[C@H](NC(=O)[C@H](Cc1c[nH]c2ccccc12)NC(=O)[C@H](CCSC)NC(=O)[C@H](CC(C)C)NC(=O)[C@H](CC(C)C)NC(=O)[C@@H](N)CO)C(=O)N[C@H](C(=O)N[C@@H](CCC(N)=O)C(=O)N[C@@H](CC(C)C)C(=O)O)[C@@H](C)O | 43.2 | 
2 | CC(C)C[C@H](NC(=O)[C@@H](N)C(C)C)C(=O)N[C@@H](CO)C(=O)N[C@@H](CC(N)=O)C(=O)N[C@@H](CC(=O)O)C(=O)N[C@H](C(=O)N[C@@H](CS)C(=O)N[C@@H](C)C(=O)N[C@@H](CCC(N)=O)C(=O)N[C@H](C(=O)O)C(C)C)C(C)C | 23.9 | 
3 | CC[C@H](C)[C@H](NC(=O)[C@@H](N)C(C)C)C(=O)N[C@@H](CO)C(=O)N[C@@H](CC(N)=O)C(=O)N[C@@H](CC(=O)O)C(=O)N[C@H](C(=O)N[C@@H](CS)C(=O)N[C@@H](C)C(=O)N[C@@H](CCC(N)=O)C(=O)N[C@H](C(=O)O)C(C)C)C(C)C (H-VISNDVCAQV-OH) | 50 | 
4 | CC(C)C[C@H](NC(=O)[C@@H](N)Cc1ccc(O)cc1)C(=O)N[C@@H](CCC(=O)O)C(=O)N1CCC[C@H]1C(=O)NCC(=O)N1CCC[C@H]1C(=O)N[C@H](C(=O)N[C@@H](C)C(=O)O)C(C)C (H-YLEPGPVA-OH; N-terminus and C-terminus assumed) |  | 5.8
